PubChem BioAssay (NCI)
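These data come from cells grown in 96-well plates and exposed to compound for 48 hours at five concentrations. TGI: total growth inhibition.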

Legend:
Test in all cases: DTP human tumour cell line panel, 48 h
[1] = tested on: OVCAR-8 ovarian
[2] = tested on: MCF7 breast
[3] = tested on: NCI-H226 lung
[4] = tested on: MDA-N
[5] = tested on: MALME-3M melanoma
[6] = tested on: CCRF-CEM leukemia
[7] = tested on: SR leukemia
[8] = tested on: IGROV1 ovarian
[9] = tested on: KM12 colon
[10] = tested on: NCI/ADR-RES ovarian

Compound	TGI [1] [µM]	TGI [2] [µM]	TGI [3] [µM]	TGI [4] [µM]	TGI [5] [µM]	TGI [6] [µM]	TGI [7] [µM]	TGI [8] [µM]	TGI [9] [µM]	TGI [10] [µM]
Brc1ccc2c(-c3csc(-c4c[nH]c5cc(Br)ccc45)n3)c[nH]c2c1	> 57.1	> 100	99.7	13.4	> 100	> 64.1	> 41	> 75.2	25.1	> 87
NC(N)=NS(=O)(=O)c1ccc(NC(=O)c2ccc3nc4ccccc4c(Nc4ccc(S(=O)(=O)N=C(N)N)cc4)c3c2)cc1	> 100	> 100	> 100	> 100	> 100	> 100	> 100	> 100	> 100	> 100
CSc1nc2c(c(=O)n1C)N=C(c1ccccc1)[C@H](C(CC(=O)c1ccccc1)c1ccccc1)C(c1ccccc1)N2 (some centres not stated)	> 100	> 100	> 100	> 100	> 100	> 100	> 100	> 100	> 100	> 100
c1ccc2c3c(c(N4CCOCC4)nc2c1)CCCC3	> 100	> 100	68.1	> 100	> 100	> 100	> 100	> 100	> 100	> 100
Brc1cc2nn(-c3ccccc3)nc2c2nonc12	> 100	> 100	> 100	> 100	> 100	> 100	> 100	> 100	> 100	> 100
CNC(=O)N(CCC#N)[C@H]1CCCC[C@@H]1N(C(=O)NC)c1ccccc1	> 100	> 100	> 100	> 100	> 100	> 100	> 100	> 100	> 100	> 100
O=c1oc2cc(O)ccc2c(O)c1C(c1ccc(C(c2c(O)c3ccc(O)cc3oc2=O)c2c(O)c3ccc(O)cc3oc2=O)cc1)c1c(O)c2ccc(O)cc2oc1=O	> 100	> 100	> 100	> 100	> 100	> 100	> 100	> 100	–	> 100
CC(=O)OC/C=C(/C=C/CNC1CCCCC1)OC(C)=O	–	66.9	98.5	31.9	32.9	> 100	35.7	34.3	32.9	44.6
C=C1C(=O)O[C@@]23C1CC[C@@H](C)C2CC[C@@]1(C)OC31 (some centres not stated)	56.5	24.9	47.9	23.1	7.59	15.9	33.2	32.3	45.7	48.4
CCOC(=O)C(CC#Cc1ccc(C#CCC(NC(C)=O)C(=O)OCC)cc1)NC(C)=O (configuration not stated)	> 100	> 100	> 100	> 100	> 100	> 100	> 100	> 100	> 100	> 100
Cc1c2ncccc2cc2oc3ccccc3c(=O)c12	> 100	> 100	> 100	> 100	> 100	> 100	> 100	> 100	> 100	> 100
CC1CC(=O)Nc2nc3ccccc3n21 (configuration not stated)	> 100	> 100	> 100	> 100	> 100	> 100	> 100	> 100	> 100	> 100
O=c1c(-c2ccc(Cl)cc2)nnc2n(Cc3ccccc3)c3ccccc3n12	> 100	> 100	> 100	> 100	> 100	> 100	> 100	> 100	> 100	> 100
C=C1CC(C)(c2ccc(Nc3nc4ccccc4c4occc34)cc2)OC1=O (configuration not stated)	11.4	> 100	1.94	12.7	43.4	3.76	4.53	–	34	20.1
O=c1c2ccccc2nc(Nc2cccc(Cl)c2)n1/N=C/C=C/c1ccccc1	> 100	74.7	> 100	> 100	> 100	> 100	> 100	> 100	> 100	> 100
O=C1CSC(c2cccs2)N1c1nc2cc3sc(N4C(=O)CSC4c4cccs4)nc3cc2s1 (configuration not stated)	> 50	> 50	26.8	> 50	> 50	> 50	> 50	> 50	> 50	> 50
COc1cc(CN2CCCCC2)cc2cc(C(=O)O)c(=O)oc12	> 100	> 100	> 100	> 100	> 100	> 100	> 100	> 100	> 100	> 100
